Source: article PMC6906431, “Selective small molecule PARG inhibitor causes replication fork stalling and cancer cell death” (Nature Communications, 2019)

Tested on: MDA-MB-231 PARG knockdown (PARG-KD) cells
Assay: Cellular PARylation, anti-PAR immunoblot
Format: cell-based, human
Description: Fig. 6 Selective inhibition of PARG by xanthine derivative JA2131. a Clonogenic survival assays of PC3, MDA-MB-231, and MCF-7 cells treated with PARGi. Cells were treated with either DMSO or 10 µM JA2131 for 2 h, irradiated with 3 Gy (MDA-MB-231 and MCF-7), 7 Gy (PC3) IR and grown for ~2 weeks, then colonies were fixed with methanol and stained with crystal violet. The results of three independent experiments are shown. Error bars = the standard error of the mean (SEM). b dose-response of JA2131 in MDA-MB-231 cells with and without IR. Cells were treated with designated concentrations of JA2131 for 2 h and then either left untreated or exposed to 3 Gy IR and allowed to recover for 1 h before lysis. Total protein was immunoblotted with anti-PAR antibody (upper panel), stripped and reprobed with anti-PCNA as a loading control. c MDA-MB-231 cells with stable scrambled shRNA (WT) or stable PARG shRNA, knockdown (KD), were treated with 5 μM JA2131 for 2 h, lysed and then total lysates were immunoblotted for anti-PAR (upper panel) followed by anti-PARG (upper middle panel), anti-PARP1 (lower middle panel) and anti-actin (bottom panel) antibody. […] Stable cells with scramble shRNA (control) and shPARG (PARG-KD) cells were treated with an increasing concentration of JA2131 for growth inhibitory IC50 determination. The data was normalized against 100% survival at the lowest inhibitor concentration. Error bars show the percent coefficient of variation. Equivalent concentrations of DMSO were used as a negative control. e The cytotoxicity of JA2131 along with PDD, Veliparib and Doxorubicin against MRC-5 cells. Error bars show the percent coefficient of variation. f CETSA for in-cell JA2131 target engagement. Normalized anti-PARG western blot intensities of three independent experiments were fitted as above and the estimated aggregation temperature (Tagg) is shown in the tabulated insert. Source Data are provided as a Source Data file.
Using shRNA, next, we generated a stable MDA-MB-231 PARG knockdown (PARG-KD) cell-line (Supplementary Fig. 10). We compared PARGi JA2131-induced PARylation in PARG-KD and control cells. We reasoned that PARG-KD cells would show a reduced response to a selective PARGi as the stable PARG-KD cells would have to adopt a PARG-independent survival mechanism. MDA-MB-231 control cells and PARG-KD cells were treated with JA2131, then total cell lysates were subjected to immunoblotting with anti-PAR antibody, followed by immunodetection for anti-PARG, PARP1 and Actin antibody (Fig. 6c). […] Dose-response curves comparing control and PARG-KD cells further validate the selective action of JA2131 on control cells expressing PARG, but not on the PARG-KD cells (Supplementary Fig. 12).
PC3, MDA-MB-231 cells were maintained in RPMI 1640, MCF-7 cells in Eagle’s Minimum Essential Medium (EMEM), MRC-5 cells in Eagle’s Minimum Essential Medium and Hela and U2OS cells in Dulbecco’s modified Eagle’s high glucose medium (DMEM) supplemented with 10% (vol/vol) fetal bovine serum (FBS) and 1% antibiotic/antimycotic (Lonza) in a humidified incubator with 10% CO2. All cell lines were purchased from ATCC and regularly checked for mycoplasma and cell authentication. SUM 149PT cells were cultured in F-12 Hams (Gibco) supplemented with 5% fetal bovine serum, insulin, and hydrocortisone. […] Cells were fixed with methanol (100%), stained with crystal violet and analyzed using a GelCount instrument (Oxford Optronix Ltd). […]

Cn1c(=S)c2[nH]c(SCCN3CCOCC3)nc2n(C)c1=O [JA2131]
anti-PAR western blot band, Normalized (5 μM JA2131 2 h, Ci-DMSO = 1): 8.898 | anti-PAR western blot band, Intensity inversion (5 μM JA2131 2 h, ImageJ): 0.00723 | anti-PAR western blot band, Neg. substracted (5 μM JA2131 2 h, ImageJ): 0.001922 | anti-PAR western blot band, mean int. (5 μM JA2131 2 h, ImageJ): 138.32 | PAR accumulation after treatment (5 μM, 2 h): did not affect the level of PAR accumulation
